Reference: patent US8173632B2, “Process for the modification of the solid state of a compound and co-amorphous compositions produced with same” (priority 2007, dated 2012)
≈ marks a conversion by molar mass, not a printed value. Entries after “also recorded” stand apart in the source; their conditions may differ.

Columns and labels:
[1] = literature reports; temperature as stated in value; cited from earlier work
[2] = room temperature; cited from earlier work
[3] = Room temperature storage stability of the non-crystalline / co-amorphous form against recrystallization; assay type: physicochemical; conditions: for stability of the non-crystalline / co-amorphous form, tendency to recrystallization (in words): room temperature storage
Excerpt: The present invention is directed to stable crystalline and non-crystalline forms of organic compositions, particularly pharmaceutical compositions, that are stable at room temperature and to processes for producing the stable crystalline and non-crystalline forms with the process of the invention.
Within an hour of the evaporation, the system stabilized with 80 percent or more of the mass of the sample cured to a clear non-crystalline form rather than a crystalline form.
After the 6 months of storage, the laser treated aspirin was studied by PXRD.
(§1) Subsequent tests with the protocol of Example 1b were repeated with the order of long and short wavelengths reversed, i.e., short wavelength followed by long wavelength cycled sequenced laser treatment. This protocol also produced up to 90 percent yields of room temperature stable non-crystalline glass aspirin, which remained stable at room temperature for over 23 months. The Petri dish containing such a sample of non-crystalline aspirin was placed on edge for a period of about six weeks.
The glass cover was removed and the sample was allowed to desolvate in an open container through slow evaporation at about 20° C. and a relative humidity of 31 percent. Before the solvent had fully evaporated, the sample developed a few small areas of apparent crystallization that were surrounded with marker lines. As the evaporation continued, no significant extension of the crystal fronts was observed.

[4] = Petri dish with non-crystalline aspirin placed on edge (flow test); assay type: physicochemical; conditions: Petri dish placed on edge for about six weeks
Excerpt: as §1

[5] = bulk form, same mass; cited from earlier work

| SMILES | stability of prior art aspirin forms against conversion / crystallization (in words) [1] | stability of the non-crystalline / co-amorphous form, tendency to recrystallization (in words) [3] | other results |
| --- | --- | --- | --- |
| CC(=O)Oc1ccccc1C(=O)O [Aspirin Form II, aspirin] | kinetically stable at 100 K (−173° C.), but converts back to Form I at ambient conditions | – | – |
| CC(=O)Oc1ccccc1C(=O)O [amorphous aspirin, aspirin] | converts rapidly to the crystalline Form I | – | – |
| CC(=O)Oc1ccccc1C(=O)O [crystalline aspirin, Aspirin] | – | – | solubility in water [2]: 3.33 mg/mL (≈ 18.5 mM) |
| CC(=O)Oc1ccccc1C(=O)O [non-crystalline aspirin, Aspirin] | – | remain stable at room temperature for at least up to about a year; also recorded: stable at room temperature once the solvent had evaporated; also recorded: No crystallization has been observed in similarly prepared samples following an additional six months of storage | period of storage with no change in appearance of the sample ([3]; room temperature of about 18° to 22° C. and about 30 to 40 percent humidity, Example 1b): over 6 months; period the non-crystalline glass remained stable ([3]; room temperature, Example 1c, short wavelength followed by long wavelength): over 23 months; flowing of the sample [4]: No flowing of the sample was observed |
| O=C1[C@H](CC[C@H](O)c2ccc(F)cc2)[C@@H](c2ccc(O)cc2)N1c1ccc(F)cc1 [non-crystalline ezetimibe, Ezetimibe] | – | remained stable for five weeks; also recorded: resisted crystallization even when adjacent to an organizing crystal front | – |
| CC(=O)Oc1ccccc1C(=O)O [vitreous aspirin, aspirin] | did not crystallize for four to five days at 298K | – | dissolution of bulk vitreous aspirin compared with powdered crystals [5]: dissolve more slowly than the same mass of finely powdered crystals of aspirin |
